In US5225420A, “Use of tetrahydrothienopyridine derivatives as angiogenesis inhibitors” (Elf-Sanofi, priority 1991, dated 1993):
Read-outs that look alike come from different tables or passages of the source.

Tests used:
[1] = test system: bovine cerebral cortex capillary endothelial cells; assay: Inhibition of rb-FGF-stimulated capillary endothelial cell proliferation (in vitro test); type: cell-based; settings: 1 ng/ml rb-FGF, cell counting 5 days after addition of test product, read-out: IC50 (50% inhibition of cell proliferation)
Method: A nutrient medium (Dulbecco's modified Eagle medium-DMEM), supplemented with fetal calf serum (concentration: 5% V/V) and containing glutamine (4 mM), penicillin (100 U/ml) and streptomycin sulphate (100 μg/ml), is introduced into 1-ml wells and innoculated with bovine cerebral cortex capillary endothelial cells (20×10^3 cells/ml), isolated and cultured as described by D. Gospodarowicz et al. in J. Cell. Physiol. 127, p. 121-136 (1986).
As soon as cell adhesion has taken place, 1 ng/ml of recombinant bovine basic fibroblast growth factor (rb-FGF), marketed by Amersham, a known factor for the stimulation of angiogenesis in vivo, is added, followed by the test solutions.
Cell counting is performed 5 days after the addition of 20 μl of a solution of the test products in dimethyl sulphoxide such that their final concentration in the medium is between 10^-4 and 10^-8 M; the control wells receive 20 μl of solvent.
From the results obtained for several concentrations of each of the test products, the concentration at which the latter produce a 50% inhibition of cell proliferation is calculated in a conventional manner.

[2] = test system: angiogenic response induced by fibrin gels; settings: rat
Method: (§1) Perforated Plexiglas chambers containing a fibrin gel, obtained by polymerisation of rat fibrinogen in the presence of thrombin, are implanted subcutaneously in rats.
The test products, suspended in absolute alcohol and 5% gum arabic (10 ml/kg), are administered orally to the rats at doses of 5 and 25 mg/kg/day for the compounds of Examples 3 and 4, for 5 days before implantation and up to the time of removal of the chambers. After 14 days, a granulation outgrowth is formed, and the chambers are removed in order to observe the height of the granulation outgrowth anchored in the matrix and the quantity of newly-formed vessels which have appeared.
(§2) The inhibition of the angiogenic response was evaluated by:
(§3) (i) the height and diameter of the granulation outgrowths,
(§4) (ii) the number of newly-formed vessels per outgrowth and their localisation,
(§5) (iii) the quality of the granulation tissue.

[3] = test system: angiogenic response induced by fibrin gels; settings: rat, treatment begun after 14 days
Method: as §1, §2, §3, §4, §5

platelet aggregation = settings: described in EP-A-0 281,459; cited from earlier work
[4] = Bos taurus, Endothelial cell, 120 h

Row | SMILES | IC50 [1, 4] [nM] | IC50 [1] [nM] | effectiveness on height of granulation outgrowths ([2]; 5 mg/kg/day oral) | inhibition of height of the granulation outgrowths ([2]; 25 mg/kg/day oral) [%] | lowering of number of newly-formed vessels per outgrowth ([2]; 25 mg/kg/day oral) [%] | further results
1 | O=C(O)C(c1ccccc1Cl)N1CCc2sccc2C1 (single isomer, unassigned) [Compound 1] | 600 | – | – | – | – | –
2 | COC(=O)C(c1ccccc1Cl)N1CCc2sccc2C1 (single isomer, unassigned) [Compound 3] | – | 0.8 | remains effective | 50 | 90 | angiogenesis-inhibiting activity ([2]; 5 mg/kg/day oral): still very active; inhibition of height of the granulation outgrowths ([2]; 5 mg/kg/day oral): 50%; lowering of number of newly-formed vessels per outgrowth ([2]; 5 mg/kg/day oral): 50%; angiogenesis-inhibiting activity (comparison with compound No. 4) ([2]; 25 mg/kg/day oral): markedly more active than its homologue, the compound No. 4; quality of the granulation tissue ([2]; oral, dose not given): more loose-textured and disorganised; activity on regression of angiogenesis ([3]; 5 mg/kg/day): still very active; activity on regression of angiogenesis (comparison with compound No. 4) ([3]; 25 mg/kg/day): markedly more active than its homologue, the compound No. 4
3 | COC(=O)C(c1ccccc1Cl)N1CCc2sccc2C1 (single isomer, unassigned) [Compound 4, laevorotatory isomer of methyl alpha-(4,5,6,7-tetrahydrothieno[3,2-c]pyrid-5-yl)-alpha-(2-chlorophenyl)acetate] | – | 3.7 | in contrast to the latter compound | 30 | 60 | platelet aggregation inhibition (platelet aggregation): inactive
4 | COC(=O)C(c1ccccc1Cl)N1CCc2sccc2C1 (centres unmarked) [Compound 2] | 2.3 | – | – | – | – | –
5 | CCOC(=O)C(c1ccccc1Cl)N1CCc2sccc2C1 (centres unmarked) [Compound 5] | 70 | – | – | – | – | –
6 | CCCCOC(=O)C(c1ccccc1Cl)N1CCc2sccc2C1 (centres unmarked) [Compound 6] | 220 | – | – | – | – | –
